≈ marks a conversion by molar mass, not a printed value. Read-outs that look alike come from different tables or passages of the source.
What was measured:
[1] = system: sea water marine organisms; assay: Effectiveness as sea water marine anti-foulant; format: in vivo; details: result in words
From the text: The results in anti-fouling paints when utilizing the 3-isothiazolones of the patents noted above, are not predictable from their effectiveness as general biocides, whether against fresh water algae, bacteria, fungi, insects, etc.
Of the compounds appearing hereinafter in the examples, a number are common to Table 1 appearing in columns 9-12 of the U.S. Pat. No. 3,573,488 patent. Among the compounds common to the latter patent and the present specification are the compounds identified in the patent as example numbers 3, 5-8, 13, 23, 24, 33, 36, 37, the n-octyl isomer of examples 38, 40, 75, 76, 79, 84, and 93-96.
In example B of the U.S. Pat. No. 3,573,448 patent (appearing in columns 22-24) involving the control of algae, bacteria, fungi, and slime in fresh water cooling towers, not one of the compounds, or in some cases its homologue or analog, was effective as a salt water marine anti-foulant. […]
In the following examples, two systems of testing the compounds and evaluating the same are utilized. One involves the utilization of a confined amount of the materials to be evaluated in a cylindrical container having an open end covered by a membrane permeable to a limited extent by the sea water and by the compound in the container. The other method involves making up an anti-fouling paint and testing the same. In a four month period, meaningful results are obtained, and for a full scale test, a six month period, bracketing the summer months, is preferred. The evaluations involving (1) field tests, (2) laboratory tests, and (3) paint panel tests, are as follows: […]

weed [2] = assay: Membrane Diffusion Raft Trials, weed control; format: in vivo, grass-like algal growth common in sea water; parameters: key: 0 = none, + = some, ++ = effective; details: membrane test, average 15 to 16 weeks of immersion
How it was run: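 Field raft test in sea water: known quantity of compound in container sealed with membrane of known porosity, diffusing into surrounding water; panels at waterline (illuminated, aerated) and flats (poorly lit, deeper). Fouling settlement inspected over about 15-16 weeks average immersion; scored 0 none, + some, ++ effective.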

barnacle = assay: Membrane Diffusion Raft Trials, barnacle control; format: in vivo, barnacles; parameters: key: 0 = none, + = some, ++ = effective barnacle control; details: membrane test, average 15 to 16 weeks of immersion
How it was run: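 Test compound held in a plastic container sealed by a porous membrane, diffusing into surrounding seawater on raft panels alongside standard poisons and a non-toxic control membrane. Settlement timed and quantified by regular inspection; scored 0 (none), + (some) or ++ (effective), averaging 15 to 16 weeks' immersion.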

[3] = Amount of toxicant remaining in the test container after membrane diffusion raft tests; format: physicochemical; parameters: key: 0: empty or trace; +: some; + +: ample; details: after completion of membrane diffusion raft tests
How it was run: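 Known amount of compound held in a cylindrical container sealed with a membrane of known porosity, fixed to a raft panel so toxicant diffuses into the surrounding water. Each panel carries 35 test compounds, 4 standard poisons and 1 non-toxic membrane control. After the trial, container contents inspected visually for remaining toxicant (0 = empty or trace).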

[4] = Water solubility by UV spectrophotometric method; format: physicochemical; details: water
How it was run: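 Molar absorptivity determined from UV absorbance of a known-concentration aqueous solution at λmax (10 cm cell). Saturated solution prepared by stirring excess compound in deionized water ~72 hrs, filtered, diluted to mid-scale absorbance; solubility calculated from absorbance using that absorptivity.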

Enteromorpha spores = assay: Laboratory toxicity test (Lab Bioassay) with Enteromorpha spores; format: in vivo; details: using Enteromorpha spores
From the text: Standard laboratory toxicity tests use Enteromorpha spores (zoospores or gametes) but Ectocarpus spores and barnacle nauplii may also be used. During the spore tests additional information on the control of bacterial and diatom slimes becomes available since these organisms are unavoidably introduced with the spore inoculum.
More detailed laboratory toxicity tests on promising compounds determine LD50 values as percentage saturated solution.
^c Using Enteromorpha spores.

weed [5] = assay: Paint panel / plaque tests against weed (Table 2); format: in vivo, grass-like algal growth common in sea water; parameters: key: high performance; medium performance; low performance; poor or unacceptable performance; details: April to November, 1975
From the text: (3) PAINT FORMULATION AND TEST PANEL OR PLAQUE TESTS
In order to evaluate the compound under practical conditions, weighed quantities of promising compounds are ground in standard volumes of a selected range of paint media and brushed out on plaques for marine immersion.
The anti-fouling paint formulations used is exemplified by the following: […]
The most preferred specific compounds were utilized in paints including vinyl chloride-vinyl acetate copolymers, chlorinated rubber, acrylic emulsions, and conventional paints with or without rosin to contain 20% by weight of biocide in the wet film and in some cases (Example 144 and Example 145) with concentrations of 5, 10, and 15% based on the wet film. Each of the compounds is also described in the membrane tests noted above. The paints were applied at normal thicknesses to plaques or panels of 10 centimeters by 10 centimeters which were immersed in various positions as described for the raft noted above. The compounds and results, as against weed, in the season April to November, 1975, are as follows: […]

[6] = saturated solution, Table 1, read-out: Solubility by UV method

Row | SMILES | effectiveness as anti-foulant in sea water marine environments [1] | Weed Control (weed [2]) | Barnacle Control (barnacle) | Contents at the end of test (amount of toxicants remaining in the test container) [3] | solubility [4, 6] | Lab Bioassay LD50 (Enteromorpha spores) | other results
1 | O=c1ccsn1Cc1ccccc1 [2-benzyl-3-isothiazolone, reference compound] | not active for controlling sea water marine organisms | – | – | – | – | – | effectiveness as anti-foulant in sea water marine environments ([1]; listed as benzyl analogue of 2-n-butyl-3-isothiazolone): ineffective as anti-foulants
2 | CCCCCCCCCCn1sccc1=O [2-n-decyl-3-isothiazolone, reference compound] | ineffective as anti-foulants | – | – | – | – | – | –
3 | Cn1scc(Cl)c1=O [4-chloro-2-methyl-3-isothiazolone, reference compound] | not active for controlling sea water marine organisms | – | – | – | – | – | –
4 | O=c1cc(Cl)sn1Cc1ccccc1 [5-chloro-2-benzyl-3-isothiazolone] | effective in both environments | – | – | – | – | – | –
5 | Cn1sc(Cl)cc1=O [5-chloro-2-methyl-3-isothiazolone, reference compound] | ineffective as anti-foulants | – | – | – | – | – | –
6 | CCCCn1sccc1=O [Example 1, 2-n-butyl-3-isothiazolone] | ineffective as anti-foulants | 0 | 0 | 0 | – | – | –
7 | CCCCCCn1sccc1=O [Example 2, 2-n-hexyl-3-isothiazolone] | not active for controlling sea water marine organisms | 0 | 0 | 0 | 5100 µg/mL (≈ 27500 µM) | – | effectiveness as anti-foulant in sea water marine environments ([1]; listed as hexyl homologue of 2-n-butyl-3-isothiazolone): ineffective as anti-foulants
8 | CCCCCCCCn1sccc1=O [Example 3, 2-n-octyl-3-isothiazolone] | not active for controlling sea water marine organisms | 0 | 0 | 0 | – | – | solubility [4]: 481 µg/mL (≈ 2250 µM); effectiveness as anti-foulant in sea water marine environments ([1]; listed as octyl homologue of 2-n-butyl-3-isothiazolone): ineffective as anti-foulants; effectiveness as anti-foulant in sea water marine environments ([1]; listed as octyl homologue of 2-n-decyl-3-isothiazolone): not active for controlling sea water marine organisms
9 | CC(C)(C)CC(C)(C)n1sccc1=O [Example 4, 2-t-octyl-3-isothiazolone] | not active for controlling sea water marine organisms | 0 | 0 | 0 | 410 µg/mL (≈ 1920 µM) | – | –
10 | CCCCCCCCCCCCn1sccc1=O [Example 5] | not active for controlling sea water marine organisms | 0 | 0 | + | – | – | –
11 | CCCCCCCCn1scc(Cl)c1=O [Example 43] | – | + + | 0 | + | 60 µg/mL (≈ 242 µM) | 0.0003 percentage saturated solution | Effectiveness in paint V (polyvinyl chloride-acetate) (weed [5]): h; Effectiveness in paint V/R (vinyl/rosin) (weed [5]): h
12 | CCCCn1sc(Cl)c(Cl)c1=O [Example 55] | control or inhibit the growth of one or more sea water marine organisms | + + | + | + | 1000 µg/mL (≈ 4420 µM) | – | –
13 | CCCCCCn1sc(Cl)c(Cl)c1=O [Example 56] | control or inhibit the growth of one or more sea water marine organisms | + + | + + | 0 | 115 µg/mL (≈ 452 µM) | – | –
14 | CCCCCCCCCCn1sc(Cl)c(Cl)c1=O [Example 63] | – | + + | 0 | + + | 1.4 µg/mL (≈ 4.51 µM) | 0.03 percentage saturated solution | Effectiveness in paint CONV (conventional anti-fouling formulation) (weed [5]): l; Effectiveness in paint CR (chlorinated rubber) (weed [5]): p; Effectiveness in paint CR/R (chlorinated rubber/rosin) (weed [5]): p; Effectiveness in paint EM (acrylic emulsion) (weed [5]): m; Effectiveness in paint V (polyvinyl chloride-acetate) (weed [5]): m; Effectiveness in paint V/R (vinyl/rosin) (weed [5]): m
15 | COc1c(Cl)cccc1-n1sc(Cl)c(Cl)c1=O [Example 79] | – | + + | + | + + | – | 0.065 percentage saturated solution | Solubility by UV method: rapidly decomposes (remark) ([4]; Table 1 solubility column): rapidly decomposes
16 | O=c1c(Br)c(Cl)sn1Cc1ccc(Cl)cc1 [Example 91] | – | + + | 0 | + | 3.3 µg/mL (≈ 9.73 µM) | 0.02 percentage saturated solution | –
17 | O=c1c(Br)c(Cl)sn1-c1ccc(Cl)cc1 [Example 93] | – | + + | + + | + + | 1.72 µg/mL (≈ 5.29 µM) | 0.012 percentage saturated solution | –
18 | O=c1c(Br)c(Br)sn1C1CCCCC1 [Example 98] | – | + + | 0 | + | 6.4 µg/mL (≈ 18.8 µM) | 0.02 percentage saturated solution | –
19 | O=c1c(Br)c(Br)sn1Cc1ccc(Cl)cc1 [Example 99] | – | + + | + | + + | 1.7 µg/mL (≈ 4.43 µM) | 0.01 percentage saturated solution | –
20 | Cc1c(Cl)sn(CCc2ccccc2)c1=O [Example 108] | – | 0 | + + | + | 155 µg/mL (≈ 611 µM) | > 1 percentage saturated solution | –
21 | Cc1c(Cl)sn(-c2cccc(Cl)c2)c1=O [Example 113] | – | + + | + | + + | 13 µg/mL (≈ 50 µM) | 0.013 percentage saturated solution | –
22 | Cc1c(Cl)sn(-c2ccc(Cl)cc2)c1=O [Example 114] | – | + + | + + | + + | 14 µg/mL (≈ 53.8 µM) | 0.008 percentage saturated solution | –
23 | O=c1c(Cl)c(Cl)sn1-c1ccc(Cl)cc1 [Example 145, 4,5-dichloro-2(4'-chlorophenyl)-3-isothiazolone] | effective in anti-fouling environments | – | – | – | – | – | Effectiveness in paint CONV (conventional anti-fouling formulation) (weed [5]): h; Effectiveness in paint CR (chlorinated rubber) (weed [5]): h; Effectiveness in paint EM (acrylic emulsion) (weed [5]): h; Effectiveness in paint V (polyvinyl chloride-acetate) (weed [5]): h; Effectiveness in paint V/R (vinyl/rosin) (weed [5]): h

Reference: patent US4127687A, “Prevention of fouling of marine structures such as boat hulls” (Rohm and Haas Company, priority 1976, dated 1978)
